The target in this experiment is Ubiquitin carboxyl-terminal hydrolase 8 (Homo sapiens) (UniProt P40818). As to the kind of experiment: Ubiquitin-specific protease 8 inhibitors, concentration-effect, biochemical, validation of initial actives (AID 1645862).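 Further: potency reflects inhibition of USP8 cleavage of a ubiquitin rhodamine substrate.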 To be noted: recombinant USP8 deubiquitinase activity assay.

This note sets out measurements from PubChem BioAssay AID1645862 (Buhrlage Lab, Dana-Farber Cancer Institute and Novartis …, 2021).

Calls of active or inactive are those of the source. How the calls were made is not given here.

Ubiquitin carboxyl-terminal hydrolase 8 (Homo sapiens), sequence (P40818 whole entry, looked up): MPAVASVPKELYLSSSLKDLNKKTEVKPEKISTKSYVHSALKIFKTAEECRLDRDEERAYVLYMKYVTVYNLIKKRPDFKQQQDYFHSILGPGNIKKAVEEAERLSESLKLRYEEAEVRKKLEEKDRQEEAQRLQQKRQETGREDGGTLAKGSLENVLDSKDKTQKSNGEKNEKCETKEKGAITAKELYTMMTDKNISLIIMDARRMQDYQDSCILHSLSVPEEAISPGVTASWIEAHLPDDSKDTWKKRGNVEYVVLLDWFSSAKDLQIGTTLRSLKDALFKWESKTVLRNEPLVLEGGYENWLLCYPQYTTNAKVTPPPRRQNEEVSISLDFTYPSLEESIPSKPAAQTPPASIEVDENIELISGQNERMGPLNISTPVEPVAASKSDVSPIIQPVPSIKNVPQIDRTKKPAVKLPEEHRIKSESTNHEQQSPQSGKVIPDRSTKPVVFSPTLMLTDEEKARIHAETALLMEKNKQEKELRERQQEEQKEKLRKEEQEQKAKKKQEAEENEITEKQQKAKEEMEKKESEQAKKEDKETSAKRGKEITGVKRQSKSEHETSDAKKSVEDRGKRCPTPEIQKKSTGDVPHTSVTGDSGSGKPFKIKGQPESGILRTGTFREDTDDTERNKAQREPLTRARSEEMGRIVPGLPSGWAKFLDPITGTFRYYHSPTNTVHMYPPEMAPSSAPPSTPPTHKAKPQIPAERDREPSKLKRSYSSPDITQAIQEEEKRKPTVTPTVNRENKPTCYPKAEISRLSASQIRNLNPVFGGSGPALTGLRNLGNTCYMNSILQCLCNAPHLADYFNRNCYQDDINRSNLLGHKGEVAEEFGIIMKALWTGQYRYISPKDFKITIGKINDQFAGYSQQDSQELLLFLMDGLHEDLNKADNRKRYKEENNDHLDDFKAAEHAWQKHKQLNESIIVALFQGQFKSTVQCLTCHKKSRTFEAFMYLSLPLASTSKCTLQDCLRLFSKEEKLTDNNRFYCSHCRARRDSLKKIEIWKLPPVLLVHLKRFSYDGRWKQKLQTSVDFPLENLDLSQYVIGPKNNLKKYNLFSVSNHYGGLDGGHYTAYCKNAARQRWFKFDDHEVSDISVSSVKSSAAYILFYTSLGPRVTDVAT

What is called IC50 is the concentration needed to halve the response being measured. Regarding `CCc1ccc(NC(=O)c2cc(C(F)(F)F)n(C)n2)cc1`, the IC50 is > 40 µM (inactive).
For `CSc1nc(NCc2ccccc2)c2sc3nc(N4CCOCC4)c4c(c3c2n1)CC(C)(C)OC4`, the IC50 was > 40 µM (inactive).
Regarding `CCCC[C@@H](C)/C=C(C)/C=C(\C)C(=O)NC1=C[C@](O)(/C=C/C=C/C=C/C(=O)NC2=C(O)CCC2=O)[C@@H]2O[C@@H]2C1=O`, the IC50 is > 40 µM (inactive).
As for `Cc1sc(NC(=O)Cn2nnc3ccccc32)nc1-c1ccc2c(c1)CCN2C(=O)c1ccccc1F`, the IC50 is > 40 µM (inactive).
With `CC(Nc1nnc(Cc2ccccc2)c(=O)[nH]1)c1ccccc1` (configuration not stated), the IC50 was > 40 µM (inactive).
Then `COc1ccc(-c2noc(CC(=O)Nc3cccc(OC)c3)n2)cc1`, with > 40 µM (inactive); and `O=C1CC(c2cc3c(cc2Br)OCO3)c2cc3c(cc2N1)OCCO3` (configuration not stated), with > 40 µM (inactive); and `Cc1cc(C)c(NC(=O)Cn2c(=O)n(CCC(=O)NCc3ccc4c(c3)OCO4)c(=O)c3sccc32)c(C)c1`, with > 40 µM (inactive).
Then `Cc1ccc(-n2nnnc2-c2cnc3cc(Cl)ccc3c2N)cc1`, with > 40 µM (inactive); and `COc1ccccc1/C=C/C(=O)NC(Cc1ccccc1)c1nc2ccccc2[nH]1` (configuration not stated), with > 40 µM (inactive).
Regarding `O=C(Cn1c(=O)n(CCC(=O)N2CCc3ccccc3C2)c(=O)c2ccccc21)NCc1ccccc1Cl`, the IC50 was > 40 µM (inactive).
Then `O=C(Cn1cnc(-c2noc(-c3cccc(F)c3)n2)c1)Nc1ccccc1`, with > 40 µM (inactive); and `COc1ccccc1CNC(=O)CCCCn1c(=O)c2ccccc2n(CC(=O)Nc2ccc(C)cc2C)c1=O`, with > 40 µM (inactive).
In the case of `Cc1ccc(NC(=O)c2cc(-c3cccnc3)n[nH]2)cc1F`, the IC50 was > 40 µM (inactive).
Then `O=C(Cn1c(=O)n(Cc2ccc(C(=O)NCc3ccco3)cc2)c(=O)c2ccccc21)Nc1ccc2c(c1)OCCO2`, with > 40 µM (inactive); and `O=C(Cn1c(=O)n(Cc2ccc3c(c2)OCO3)c(=O)c2ccccc21)NCc1ccco1`, with > 40 µM (inactive).
The same measure for `CCOc1cc2c(cc1OCC)C(c1cc3c(cc1Br)OCO3)NCC2` (configuration not stated): > 40 µM (inactive).
The same measure for `COc1ccc(C)cc1NC(=O)CN1C(=O)C2CCCC2=Nc2ccccc21` (configuration not stated): > 40 µM (inactive).
Regarding `COc1ccc(Cl)cc1C(=O)NNC(=O)c1cc(-c2ccccc2)n[nH]1`, the IC50 was > 40 µM (inactive).
With `Cc1cc(NS(=O)(=O)c2ccc(NC(=O)COc3ccc(Cl)cc3)cc2)no1`, the IC50 was > 40 µM (inactive).
The same measure for `O=C(Nc1nc2c(ccc3ccccc32)s1)c1cccc(Br)c1`: > 40 µM (inactive); for `CC(C)Cc1nc2sc3c(SCC(=O)N4CCC(C)CC4)ncnc3c2c2c1COC(C)(C)C2`: > 40 µM (inactive).
Regarding `NS(=O)(=O)c1ccc(CNS(=O)(=O)/C=C/c2ccccc2)cc1`, the IC50 was > 40 µM (inactive).
Then `O=C(NCc1ccccc1)Nc1cccc2ccccc12`, with > 40 µM (inactive); and `Cc1ccc(-c2nc(NC(=O)COc3ccc(Cl)cc3)no2)cc1`, with 9.1 µM.
Regarding `O=C(Nc1cccc(Cl)c1)c1cc(-c2cccnc2)n[nH]1`, the IC50 was > 40 µM (inactive).
The same measure for `CCOc1ccc(CCNC(=O)Cn2c(-c3ccc(F)cc3)cc(C(C)=O)c2C)cc1OCC`: > 40 µM (inactive); for `Cc1ccc(NC(=O)CSc2ccc(NC(=O)c3ccc(C(=O)O)cc3C(=O)O)cc2)c(C)c1`: > 40 µM (inactive); for `O=C(CSc1nc2c(cnn2-c2ccccc2)c(=O)[nH]1)Nc1ccc(Cl)cc1F`: 32.1 µM.
The same measure for `O=C(Nc1cccc(Cl)c1)c1ncn2c1CNS(=O)(=O)c1ccccc1-2`: > 40 µM (inactive); for `COc1cc(OC)c(NC(=O)Cn2c(=O)n(Cc3ccccc3Cl)c(=O)c3cc(OC)c(OC)cc32)cc1Cl`: > 40 µM (inactive); for `O=C(Nc1ccccc1C(F)(F)F)c1cccc(S(=O)(=O)Nc2cc(C(F)(F)F)ccc2Cl)c1`: > 40 µM (inactive).
Then `Cc1ccc(-n2cc(C(=O)NCCCc3ccccc3)nn2)cc1`, with > 40 µM (inactive); and `O=C(CCCc1nnc2c(=O)n(-c3cccc(F)c3)ccn12)Nc1ccccc1`, with > 40 µM (inactive).
For `Cc1cc(Cl)ccc1NC(=O)c1cc(-c2ccncc2)n[nH]1`, the IC50 is > 40 µM (inactive).
With `Cc1ccc(NC(=O)Cc2nnc3c(-c4nc(C5CC5)no4)cccn23)cc1F`, the IC50 was 30.3 µM.
In the case of `COc1cccc(NC(=O)c2cnc(N3CCCC3)nc2C)c1`, the IC50 was > 40 µM (inactive).
Consider `O=C(Nc1cc(F)c2nc(N3CCCC3)ccc2c1)c1ccco1`, for which the IC50 was > 40 µM (inactive).
Then `CC(C)=CCc1c2c(c3occ(-c4ccc(O)c(O)c4)c(=O)c3c1O)C=CC(C)(C)O2`, with 16 µM.
Turning to `Cc1cccc(OCC2=NN3C(=N)/C(=C\c4cc(C)n(-c5cccc(F)c5)c4C)C(=O)N=C3S2)c1`, the IC50 was > 40 µM (inactive).
In the case of `O=C(CNS(=O)(=O)c1ccc(F)cc1)N1CCCC(c2nnc3ccccn23)C1` (configuration not stated), the IC50 is > 40 µM (inactive).
The same measure for `CC[C@H](C)[C@H](NC(=O)[C@H]([C@@H](C)CC)N(C)C(C)=O)C(=O)N[C@H](C(=O)N[C@@H](CC(C)C)C(=O)C1(C)CO1)[C@@H](C)O` (some centres not stated): > 40 µM (inactive); for `COc1ccc(-c2nc(NCCCN3CCOCC3)c3ccccc3n2)cc1`: > 40 µM (inactive); for `COc1ccc(-c2nc(Cn3nnc(C(=O)Nc4ccc(C)c(C)c4)c3N)c(C)o2)cc1`: > 40 µM (inactive).
Then `COc1cc(NC(=O)c2ccc3c(c2)OCO3)ccc1-c1cc2ccccc2oc1=O`, with > 40 µM (inactive).
Then `Cc1ccc(S(=O)(=O)Nc2cccc(Cl)c2)cc1NC(=O)CCC(=O)c1ccc(Cl)cc1`, with > 40 µM (inactive); and `O=C(NCc1ccc2c(c1)OCO2)c1cc2c(s1)-c1ccccc1OC2`, with > 40 µM (inactive); and `COc1cc(Cl)c(NC(=O)C2Cc3ccccc3N2C(=O)c2ccccc2)c(OC)c1` (configuration not stated), with > 40 µM (inactive).
Consider `Cc1[nH]n2c(=O)c(Cl)c(-c3ccccc3)nc2c1-c1ccccc1`, for which the IC50 was > 40 µM (inactive).
Then `Cc1nc(-c2noc(-c3cccc(F)c3)n2)cn1CC(=O)Nc1ccccc1`, with 39.2 µM; and `O=C(Cn1ccc2ccn(Cc3ccccc3)c2c1=O)Nc1ccccc1Cl`, with > 40 µM (inactive); and `CCOc1cccc(-c2noc(-c3nn(-c4ccccc4)ccc3=O)n2)c1`, with > 40 µM (inactive).
Take `COc1cc2c(oc(=O)c3cc(C)cc(OC)c32)c2c([C@@H]3OC(C)[C@@H](O)[C@@](C)(O)C3O)ccc(O)c12` (some centres not stated): the IC50 was > 40 µM (inactive).
The same measure for `O=C(C1=CSCCO1)N1CCc2ccccc2C1`: > 40 µM (inactive); for `Cn1c(=O)[nH]c(=O)c2c1nc(N1CCc3ccccc3C1)n2CCSc1nnnn1-c1ccccc1`: > 40 µM (inactive); for `COc1ccc(Cl)cc1NC(=O)Cn1c(=O)n(CCC(=O)NC2CCCC2)c(=O)c2ccccc21`: > 40 µM (inactive).
Then `CCOc1ccccc1-c1cc(NC(=O)c2cc3ccc4cccnc4c3[nH]2)on1`, with > 40 µM (inactive).
